Values quoted from earlier work, collected in publication PMC4763008, “Selective Inhibition of Bakuchicin Isolated from Psoralea corylifolia on CYP1A in Human Liver Microsomes” (Evidence-based Complementary and Alternative Medicine : eCAM, 2016).

What was measured:
CYP1A [1] = biological target: T1, CYP1A (Homo sapiens, UniProt P05177); conditions: human liver microsomes ref 17; cited from earlier work
T1 sequence (P05177 2-516): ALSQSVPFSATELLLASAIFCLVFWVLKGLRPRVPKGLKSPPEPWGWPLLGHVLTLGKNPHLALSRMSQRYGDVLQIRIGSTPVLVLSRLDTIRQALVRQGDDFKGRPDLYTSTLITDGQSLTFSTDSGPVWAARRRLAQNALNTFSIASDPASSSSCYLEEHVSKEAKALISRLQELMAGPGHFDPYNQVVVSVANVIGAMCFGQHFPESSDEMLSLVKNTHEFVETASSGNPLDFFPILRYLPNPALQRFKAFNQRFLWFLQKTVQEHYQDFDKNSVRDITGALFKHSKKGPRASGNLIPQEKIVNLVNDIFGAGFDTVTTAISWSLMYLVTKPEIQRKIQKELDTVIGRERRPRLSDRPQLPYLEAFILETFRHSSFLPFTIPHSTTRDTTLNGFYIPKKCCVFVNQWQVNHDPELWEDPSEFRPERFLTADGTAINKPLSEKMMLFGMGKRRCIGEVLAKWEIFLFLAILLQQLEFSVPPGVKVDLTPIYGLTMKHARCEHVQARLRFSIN

CYP1A [2] = conditions: rat liver microsomes ref 17; cited from earlier work

| Compound | type of inhibitor (CYP1A [1]) | type of inhibitor (CYP1A [2]) |
| --- | --- | --- |
| O=c1ccc2ccc3occc3c2o1 [isopsoralen] | reversible and time-dependent inhibitor | reversible and time-dependent inhibitor |
| O=c1ccc2cc3ccoc3cc2o1 [psoralen] | reversible and time-dependent inhibitor | reversible and time-dependent inhibitor |
